Experimental data taken from patent US11248022B2, “Glypican-3 peptide reagents and methods” (THE REGENTS OF THE UNIVERSITY OF MICHIGAN, priority 2017, dated 2022).
Ends that are not written are not given here.

Tested on: human HCC
Assay: Immunofluorescence on human liver biopsies ex vivo
Text: Specific peptide binding to human HCC was confirmed on patient biopsies (n=41) ex vivo from University of Michigan Hospital. […] Antibody staining of the same tissue confirmed minimal GPC3 expression, FIG. 15B. Binding by ALL*-Cy5.5 peptide and AF488-labeled anti-GPC3 antibody co-localized on normal liver specimen with Pearson's correlation coefficient of p=0.62, FIG. 15C. Co-stained regions were also imaged at 40×, FIG. 15D and 100× (dashed box in Panel D) magnifications, FIG. 15E.
Quantitative comparison of ALL*-Cy5.5 binding to human HCC with normal liver, adenoma and cirrhosis tissue was summarized in FIG. 15U.

[1] = 41 patients, log-transformed data

In the case of “ALLANHEELFQT (SEQ ID NO: 1) peptide labeled with Cy5.5 via a GGGSK linker on the C-terminus (ALLANHEELFQTGGGSK-{Cy5.5}) [ALL*-Cy5.5]”, the “signal in HCC relative to adenoma” value [1] is reported as 2.48 fold, the “signal in HCC relative to cirrhosis” value [1] is reported as 2.05 fold and the “signal in HCC relative to normal” value [1] is reported as 3.43 fold. For the same sequence, the immunofluorescence staining (HCC tissue) was “Strong intense staining”, the immunofluorescence staining (adenoma tissue) was “Minimal staining” and the immunofluorescence staining (cirrhotic liver tissue) was “moderate diffuse staining”. For the same sequence, the immunofluorescence staining (human normal liver tissue) was “negative staining”.
